# Measured values published in patent publication US11767323B2, “Tricyclic pyridone compounds as JAK2 V617F inhibitors” (Incyte Corporation, priority 2020, dated 2023).
# Key:
# [1] = biological target: catalytic domain (JH1, amino acids 808-1132) of human JAK2 (Homo sapiens (Human), UniProt O60674); experiment: JAK2 HTRF Enzyme Activity Assay; assay type: biochemical; conditions: JAK2 0.015 nM, ATP (30 μM or 1 mM), 60 minutes at 25° C.
# Protocol: Example D. JAK2 HTRF Enzyme Activity Assay
# JAK2 enzyme activity assays utilize catalytic domain (JH1, amino acids 808-1132) of human JAK2 expressed as N-terminal His-tagged protein in a baculovirus expression system (BPS Bioscience, Catalog #40450). The assays was conducted in black 384-well polystyrene plates in a final reaction volume of 20 μL. JAK2 (0.015 nM) was incubated with compounds (100 nL serially diluted in DMSO) in the presence of ATP (30 μM or 1 mM) and 500 nM Biotin-labeled EQEDEPEGDYFEWLE (SEQ ID NO.: 1) peptide (BioSource International, custom synthesis) in assay buffer (50 mM Tris, pH=7.5, 10 mM MgCl2, 0.01% Brij-35, 0.1% BSA, 1 mM EGTA, 5% Glycerol and 5 mM DTT) for 60 minutes at 25° C. The reactions were stopped by the addition of 10 μL of detection buffer (50 mM Tris, pH 7.8, 0.5 mg/mL BSA, 150 mM NaCl), supplemented with EDTA, LANCE Eu-W1024 anti-phosphotyrosine (PY20), (PerkinElmer, Catalog #AD0067) and Streptavidin SureLight APC (PerkinElmer Catalog #CR130-100), for a final concentration of 15 mM, 1.5 nM and 75 nM, respectively. HTRF signals were read after 30 minutes incubation at room temperature on a PHERAstar FS plate reader (BMG LAB TECH). Data was analyzed with IDBS XLfit and GraphPad Prism 5.0 software using a four parameter dose response curve to determine IC50 for each compound.
# [2] = biological target: pseudo-kinase domain (JH2, amino-acids 536-812) of human Wild Type JAK2 (Homo sapiens (Human), UniProt O60674, F794H/W659A/W777A); experiment: JAK2 LanthaScreen JH2-WT Binding Assay; conditions: JAK2 JH2-WT 0.145 nM, 50 nM tracer, 1 hour at 25° C.; read-out: JH2 BIND WT IC50
# Chain of pseudo-kinase domain (JH2, amino-acids 536-812) of human Wild Type JAK2 (O60674 536-812 W659A/W777A/F794H): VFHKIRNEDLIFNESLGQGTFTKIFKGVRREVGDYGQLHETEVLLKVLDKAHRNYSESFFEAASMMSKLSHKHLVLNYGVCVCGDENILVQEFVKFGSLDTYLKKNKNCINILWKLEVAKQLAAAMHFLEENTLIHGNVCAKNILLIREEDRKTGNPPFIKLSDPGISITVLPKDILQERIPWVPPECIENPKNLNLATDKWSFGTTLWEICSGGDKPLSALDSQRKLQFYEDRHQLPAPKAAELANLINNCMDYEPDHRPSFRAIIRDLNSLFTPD
# Protocol: Example B. JAK2 LanthaScreen JH2-WT Binding Assay
# (§1) JAK2 JH2-WT binding assay utilizes pseudo-kinase domain (JH2, amino-acids 536-812 with 3 surface mutations W659A, W777A, F794H) of human Wild Type JAK2 expressed as C-terminal His-Avi-tagged, biotinylated protein in a baculovirus expression system (BPS Bioscience, Catalog #79463). The assay was conducted in black 384-well polystyrene plates in a final reaction volume of 20 μL. JAK2 JH2-WT (0.145 nM) was incubated with compounds (100 nL serially diluted in DMSO) in the presence of 50 nM Fluorescent JAK2-JH2 Tracer (MedChem Express Catalog #HY-102055) and 0.25 nM Streptavidin-Tb cryptate (Cisbio Part #610SATLB) in assay buffer (50 mM Tris, pH=7.5, 10 mM MgCl2, 0.01% Brij-35, 0.1% BSA, 1 mM EGTA, 5% Glycerol and 5 mM DTT). Non-specific binding was accessed in the presence of 2 mM ATP. After incubation for 1 hour at 25° C., LanthaScreen signals were read on a PHERAstar FS plate reader (BMG LAB TECH). Data was analyzed with IDBS XLfit and GraphPad Prism 5.0 software using a four parameter dose response curve to determine IC50 for each compound.
# [3] = biological target: pseudo-kinase domain (JH2, amino-acids 536-812) of human V617F mutant JAK2 (Homo sapiens (Human), UniProt O60674, F794H/V617F/W659A/W777A); experiment: JAK2 LanthaScreen JH2-V617F Binding Assay; conditions: JAK2 JH2-V617F 0.26 nM, 50 nM tracer, 1 hour at 25° C.; read-out: JH2 BIND V617F IC50
# Chain of pseudo-kinase domain (JH2, amino-acids 536-812) of human V617F mutant JAK2 (O60674 536-812 V617F/W659A/W777A/F794H): as the sequence (O60674 536-812 W659A/W777A/F794H) above, with V82F counted along it
# Protocol: Example C. JAK2 LanthaScreen JH2-V617F Binding Assay
# as §1, with “JH2-V617F” for “JH2-WT”, “V617F mutant” for “Wild Type”, “#79498).” for “#79463).”, “JH2-V617F (0.26” for “JH2-WT (0.145”, “LABTECH).” for “LAB TECH).”
# [4] = biological target: catalytic domain (JH1, amino acids 826-1132) of human JAK2 (Homo sapiens (Human), UniProt O60674); experiment: JAK2 LanthaScreen JH1 Binding Assay; conditions: JAK2 JH1 1.5 nM, 50 nM tracer, 2 hours at 25° C.; read-out: JH1 BIND IC50
# Chain of catalytic domain (JH1, amino acids 826-1132) of human JAK2 (O60674 826-1132): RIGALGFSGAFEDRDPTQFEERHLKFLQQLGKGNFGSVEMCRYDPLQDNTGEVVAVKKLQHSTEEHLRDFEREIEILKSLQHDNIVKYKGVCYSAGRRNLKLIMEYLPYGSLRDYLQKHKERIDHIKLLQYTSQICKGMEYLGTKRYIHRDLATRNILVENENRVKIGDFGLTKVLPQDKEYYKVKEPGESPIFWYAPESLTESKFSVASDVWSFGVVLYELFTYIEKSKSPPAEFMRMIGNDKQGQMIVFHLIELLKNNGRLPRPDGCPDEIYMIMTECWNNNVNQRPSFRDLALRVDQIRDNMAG
# Protocol: Example A. JAK2 LanthaScreen JH1 Binding Assay
# JAK2 JH1 binding assay utilizes catalytic domain (JH1, amino acids 826-1132) of human JAK2 expressed as N-terminal FLAG-tagged, biotinylated protein in a baculovirus expression system (Carna Biosciences, Product #08-445-20N). The assay was conducted in black 384-well polystyrene plates in a final reaction volume of 20 μL. JAK2 JH1 (1.5 nM) was incubated with compounds (100 nL serially diluted in DMSO) in the presence of 50 nM Fluorescent JAK2-JH1 Tracer and 0.5 nM Streptavidin-Tb cryptate (Cisbio Part #610SATLB) in assay buffer (50 mM Tris, pH=7.5, 10 mM MgCl2, 0.01% Brij-35, 0.1% BSA, 1 mM EGTA, 5% Glycerol and 5 mM DTT). Non-specific binding was accessed in the presence of 2 mM ATP. After incubation for 2 hours at 25° C., LanthaScreen signals were read on a PHERAstar FS plate reader (BMG LABTECH). Data was analyzed with IDBS XLfit and GraphPad Prism 5.0 software using a four parameter dose response curve to determine IC50 for each compound.
# Chain of catalytic domain (JH1, amino acids 808-1132) of human JAK2 (O60674 808-1132): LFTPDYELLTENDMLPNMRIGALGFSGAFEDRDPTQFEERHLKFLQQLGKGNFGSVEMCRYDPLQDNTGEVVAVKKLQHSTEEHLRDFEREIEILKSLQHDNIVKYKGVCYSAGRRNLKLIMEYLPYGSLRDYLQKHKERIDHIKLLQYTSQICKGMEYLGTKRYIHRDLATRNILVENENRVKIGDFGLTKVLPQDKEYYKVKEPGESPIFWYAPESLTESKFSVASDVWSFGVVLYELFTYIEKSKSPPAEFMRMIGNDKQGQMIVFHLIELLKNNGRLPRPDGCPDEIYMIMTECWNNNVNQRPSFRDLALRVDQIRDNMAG
Structure (SMILES),IC50 [1] [nM],IC50 [2] [nM],IC50 [3] [nM],IC50 [4] [nM]
"Cc1cc(-c2c(-c3ccc(C(=O)Nc4ccc5oc(C)nc5c4)cc3)c3c4cc(-c5cnn(C)c5)[nH]c4ncc3n(C)c2=O)on1 [Example 26, 4-(6-Methyl-2-(1-methyl-1H-pyrazol-4-yl)-8-(3-methylisoxazol-5-yl)-7-oxo-6,7-dihydro-3H-pyrrolo[3,2-f][1,7]naphthyridin-9-yl)-A-(2-methylbenzo[d]oxazol-5-yl)benzamide]",100 to 500,≤ 100,≤ 100,100 to 500
"COCc1ccc(-c2c(-c3cc(C)no3)c(=O)n(C)c3cnc4[nH]c(-c5cnn(C)c5)cc4c23)cc1 [Example 27, 9-(4-(Methoxymethyl)phenyl)-6-methyl-2-(1-methyl-1H-pyrazol-4-yl)-8-(3-methylisoxazol-5-yl)-3,6-dihydro-7H-pyrrolo[3,2-f][1,7]naphthyridin-7-one]",100 to 500,≤ 100,≤ 100,100 to 500
"Cc1cc(-c2c(-c3ccc(CNC4CCCOC4)cc3)c3c4cc(-c5cnn(C)c5)[nH]c4ncc3n(C)c2=O)on1 (stereo not drawn) [Example 28, 6-Methyl-2-(1-methyl-1H-pyrazol-4-yl)-8-(3-methylisoxazol-5-yl)-9-(4-(((tetrahydro-2H-pyran-3-yl)amino)methyl)phenyl)-3,6-dihydro-7H-pyrrolo[3,2-f][1,7]naphthyridin-7-one]",100 to 500,≤ 100,≤ 100,100 to 500
"COCCN(C)c1ccc(-c2c(-c3cc(C)no3)c(=O)n(C)c3cnc4[nH]c(-c5cnn(C)c5)cc4c23)cc1 [Example 29, 9-(4-((2-Methoxyethyl)(methyl)amino)phenyl)-6-methyl-2-(1-methyl-1H-pyrazol-4-yl)-8-(3-methylisoxazol-5-yl)-3,6-dihydro-7H-pyrrolo[3,2-f][1,7]naphthyridin-7-one]",100 to 500,≤ 100,≤ 100,100 to 500
"Cc1cc(-c2c(-c3ccc(NC4CCOCC4)cc3)c3c4cc(-c5cnn(C)c5)[nH]c4ncc3n(C)c2=O)on1 [Example 30, 6-Methyl-2-(1-methyl-1H-pyrazol-4-yl)-8-(3-methylisoxazol-5-yl)-9-(4-((tetrahydro-2H-pyran-4-yl)amino)phenyl)-3,6-dihydro-7H-pyrrolo[3,2-f][1,7]naphthyridin-7-one]",500 to 1000,≤ 100,≤ 100,500 to 1000
"Cc1cc(-c2c(-c3ccc(-c4cnn(C)c4C)cc3)c3c4cc(-c5cnn(C)c5)[nH]c4ncc3n(C)c2=O)on1 [Example 31, 9-(4-(1,5-Dimethyl-1H-pyrazol-4-yl)phenyl)-6-methyl-2-(1-methyl-1H-pyrazol-4-yl)-8-(3-methylisoxazol-5-yl)-3,6-dihydro-7H-pyrrolo[3,2-f][1,7]naphthyridin-7-one]",500 to 1000,≤ 100,≤ 100,500 to 1000
"Cc1cc(-c2c(-c3ccc(-c4cnn(C)c4CO)cc3)c3c4cc(-c5cnn(C)c5)[nH]c4ncc3n(C)c2=O)on1 [Example 32, 9-(4-(5-(Hydroxymethyl)-1-methyl-1H-pyrazol-4-yl)phenyl)-6-methyl-2-(1-methyl-1H-pyrazol-4-yl)-8-(3-methylisoxazol-5-yl)-3,6-dihydro-7H-pyrrolo[3,2-f][1,7]naphthyridin-7-one]",100 to 500,≤ 100,≤ 100,100 to 500
"Cc1cc(-c2c(C3CCN(S(C)(=O)=O)C3)c3c4cc(-c5cnn(C)c5)[nH]c4ncc3n(C)c2=O)on1 (stereo not drawn) [Example 33, 6-Methyl-2-(1-methyl-1H-pyrazol-4-yl)-8-(3-methylisoxazol-5-yl)-9-(1-(methylsulfonyl)pyrrolidin-3-yl)-3,6-dihydro-7H-pyrrolo[3,2-f][1,7]naphthyridin-7-one]",100 to 500,≤ 100,≤ 100,100 to 500
"CN(C)C(=O)c1ccc(-c2c(-c3cnn(C)c3)[nH]c3ncc4c(cc(Nc5cccc(-c6nnn[nH]6)c5)c(=O)n4C)c23)cc1 [Example 34, 4-(8-((3-(1H-tetrazol-5-yl)phenyl)amino)-6-methyl-2-(1-methyl-1H-pyrazol-4-yl)-7-oxo-6,7-dihydro-3H-pyrrolo[3,2-f][1,7]naphthyridin-1-yl)-N,N-dimethylbenzamide]",100 to 500,≤ 100,≤ 100,100 to 500
"CN(C)C(=O)c1ccc(-c2c(-c3cnn(C)c3)[nH]c3ncc4c(cc(Nc5ccc(Cc6nnn[nH]6)cc5)c(=O)n4C)c23)cc1 [Example 35, 4-(8-((4-((1H-tetrazol-5-yl)methyl)phenyl)amino)-6-methyl-2-(1-methyl-1H-pyrazol-4-yl)-7-oxo-6,7-dihydro-3H-pyrrolo[3,2-f][1,7]naphthyridin-1-yl)-N,N-dimethylbenzamide]",≤ 100,≤ 100,≤ 100,≤ 100
"Cc1ccncc1-c1cc2c3c(-c4ccc(C(=O)N(C)C)cc4)c(-c4cnn(C)c4)[nH]c3ncc2n(C)c1=O [Example 36, N,N-dimethyl-4-(6-methyl-2-(1-methyl-1H-pyrazol-4-yl)-8-(4-methylpyridin-3-yl)-7-oxo-6,7-dihydro-3H-pyrrolo[3,2-f][1,7]naphthyridin-1-yl)benzamide]",≤ 100,≤ 100,≤ 100,≤ 100
"CC(=O)N1CC[C@H](c2cc3c4c(-c5ccccc5)c(-c5ccc(CN6CCC(S(C)(=O)=O)CC6)cc5)[nH]c4ncc3n(C)c2=O)C1 [Example 37, (R)-8-(1-acetylpyrrolidin-3-yl)-6-methyl-2-(4-((4-(methylsulfonyl)piperidin-1-yl)methyl)phenyl)-1-phenyl-3,6-dihydro-7/7-pyrrolo[3,2-f][1,7]naphthyridin-7-one]",≤ 100,≤ 100,≤ 100,≤ 100
